According to PMC6804997 (PLoS ONE, 2019):

Key:
Experiment in all cases: HDAC enzyme inhibition assay (Ac-peptide-AMC substrate)
Format in all cases: biochemical
HDAC5 = HDAC5 (Homo sapiens, UniProt Q9UQL6); conditions: HDAC5 vs HDAC6
Description: (§1) HDACs inhibition assay of F7 was performed utilizing 4-amino-7-methylcoumarin (AMC) labeled Ac-peptide (Ac-peptide-AMC) substrates, a service provided by Chempartner Company (Shanghai, China).
(§2) This assay was performed was performed utilizing 4-amino-7-methylcoumarin (AMC) labeled Ac-peptide (Ac-peptide-AMC) substrates, a service provided by Chempartner Company (Shanghai, China).

HDAC4 = HDAC4 (Homo sapiens, UniProt P56524); conditions: HDAC4 vs HDAC6
Chain of HDAC4 (P56524 whole entry, species assumed): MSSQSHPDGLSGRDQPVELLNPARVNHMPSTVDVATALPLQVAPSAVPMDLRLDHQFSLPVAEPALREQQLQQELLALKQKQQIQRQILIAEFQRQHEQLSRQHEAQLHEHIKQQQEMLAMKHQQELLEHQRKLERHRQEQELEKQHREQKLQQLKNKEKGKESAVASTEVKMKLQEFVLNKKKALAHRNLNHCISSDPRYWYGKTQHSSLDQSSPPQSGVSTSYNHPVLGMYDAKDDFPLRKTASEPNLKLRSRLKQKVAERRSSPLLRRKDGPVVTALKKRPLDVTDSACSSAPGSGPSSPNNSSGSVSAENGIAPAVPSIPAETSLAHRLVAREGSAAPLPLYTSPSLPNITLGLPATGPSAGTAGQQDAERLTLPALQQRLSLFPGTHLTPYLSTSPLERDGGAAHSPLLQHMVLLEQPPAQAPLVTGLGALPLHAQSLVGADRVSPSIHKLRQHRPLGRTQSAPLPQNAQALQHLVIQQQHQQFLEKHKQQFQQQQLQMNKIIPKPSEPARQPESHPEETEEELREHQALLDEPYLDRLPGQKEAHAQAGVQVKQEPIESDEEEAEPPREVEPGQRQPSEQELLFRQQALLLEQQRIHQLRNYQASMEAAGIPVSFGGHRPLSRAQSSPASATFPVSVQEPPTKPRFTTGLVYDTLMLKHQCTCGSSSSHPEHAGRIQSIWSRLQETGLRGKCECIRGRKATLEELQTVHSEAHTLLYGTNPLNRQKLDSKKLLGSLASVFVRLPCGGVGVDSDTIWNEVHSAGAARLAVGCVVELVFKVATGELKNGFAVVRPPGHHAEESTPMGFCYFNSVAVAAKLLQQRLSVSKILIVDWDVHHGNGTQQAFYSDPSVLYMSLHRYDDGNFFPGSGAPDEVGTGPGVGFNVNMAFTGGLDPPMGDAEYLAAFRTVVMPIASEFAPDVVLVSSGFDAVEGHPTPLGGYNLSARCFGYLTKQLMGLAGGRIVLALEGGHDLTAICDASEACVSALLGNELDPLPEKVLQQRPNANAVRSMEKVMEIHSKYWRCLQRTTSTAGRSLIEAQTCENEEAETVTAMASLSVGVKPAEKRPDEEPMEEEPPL
Description: as §1, §2

HDAC7 = biological target: T1, HDAC7 (Homo sapiens, UniProt Q8WUI4); conditions: HDAC7 vs HDAC6
T1 sequence (Q8WUI4 1-952): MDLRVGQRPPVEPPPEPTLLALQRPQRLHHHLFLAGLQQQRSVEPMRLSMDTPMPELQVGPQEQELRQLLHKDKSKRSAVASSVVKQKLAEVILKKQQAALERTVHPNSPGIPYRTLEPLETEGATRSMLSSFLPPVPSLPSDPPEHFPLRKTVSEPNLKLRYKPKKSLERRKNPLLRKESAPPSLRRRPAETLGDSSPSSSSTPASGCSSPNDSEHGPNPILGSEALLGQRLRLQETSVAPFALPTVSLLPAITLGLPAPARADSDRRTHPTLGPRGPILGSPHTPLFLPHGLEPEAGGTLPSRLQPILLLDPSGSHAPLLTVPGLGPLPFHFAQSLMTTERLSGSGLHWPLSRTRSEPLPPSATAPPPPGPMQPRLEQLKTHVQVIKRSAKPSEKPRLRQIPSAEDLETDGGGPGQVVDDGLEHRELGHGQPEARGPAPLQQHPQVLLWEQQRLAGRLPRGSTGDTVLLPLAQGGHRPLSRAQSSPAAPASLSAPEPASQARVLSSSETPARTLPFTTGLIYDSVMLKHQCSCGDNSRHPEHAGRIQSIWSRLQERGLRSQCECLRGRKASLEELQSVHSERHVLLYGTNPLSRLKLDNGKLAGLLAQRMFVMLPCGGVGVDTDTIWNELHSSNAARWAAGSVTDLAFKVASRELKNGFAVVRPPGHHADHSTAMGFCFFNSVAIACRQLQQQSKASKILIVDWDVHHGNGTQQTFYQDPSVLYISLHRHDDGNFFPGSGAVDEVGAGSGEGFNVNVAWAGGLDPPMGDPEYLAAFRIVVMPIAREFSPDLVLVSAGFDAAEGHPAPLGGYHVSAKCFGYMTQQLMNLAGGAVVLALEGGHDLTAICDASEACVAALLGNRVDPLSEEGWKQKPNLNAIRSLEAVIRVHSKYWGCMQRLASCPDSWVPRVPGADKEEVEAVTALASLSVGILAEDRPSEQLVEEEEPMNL
Description: as §1, §2

HDAC11 = biological target: T2, HDAC11 (Homo sapiens, UniProt Q96DB2); conditions: HDAC11 vs HDAC6
T2 sequence (Q96DB2 1-347): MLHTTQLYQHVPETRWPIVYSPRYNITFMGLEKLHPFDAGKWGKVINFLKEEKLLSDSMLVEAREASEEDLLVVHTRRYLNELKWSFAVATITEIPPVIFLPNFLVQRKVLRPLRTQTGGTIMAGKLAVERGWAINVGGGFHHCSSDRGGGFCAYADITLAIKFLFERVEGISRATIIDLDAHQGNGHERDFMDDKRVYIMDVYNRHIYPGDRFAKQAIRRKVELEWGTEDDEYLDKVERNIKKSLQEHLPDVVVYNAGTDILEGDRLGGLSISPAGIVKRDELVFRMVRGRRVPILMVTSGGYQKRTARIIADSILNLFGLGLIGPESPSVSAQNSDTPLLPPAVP
Description: as §1, §2

HDAC9 = HDAC9 (Homo sapiens, UniProt Q9UKV0); conditions: HDAC9 vs HDAC6
Chain of HDAC9 (Q9UKV0 whole entry, species assumed): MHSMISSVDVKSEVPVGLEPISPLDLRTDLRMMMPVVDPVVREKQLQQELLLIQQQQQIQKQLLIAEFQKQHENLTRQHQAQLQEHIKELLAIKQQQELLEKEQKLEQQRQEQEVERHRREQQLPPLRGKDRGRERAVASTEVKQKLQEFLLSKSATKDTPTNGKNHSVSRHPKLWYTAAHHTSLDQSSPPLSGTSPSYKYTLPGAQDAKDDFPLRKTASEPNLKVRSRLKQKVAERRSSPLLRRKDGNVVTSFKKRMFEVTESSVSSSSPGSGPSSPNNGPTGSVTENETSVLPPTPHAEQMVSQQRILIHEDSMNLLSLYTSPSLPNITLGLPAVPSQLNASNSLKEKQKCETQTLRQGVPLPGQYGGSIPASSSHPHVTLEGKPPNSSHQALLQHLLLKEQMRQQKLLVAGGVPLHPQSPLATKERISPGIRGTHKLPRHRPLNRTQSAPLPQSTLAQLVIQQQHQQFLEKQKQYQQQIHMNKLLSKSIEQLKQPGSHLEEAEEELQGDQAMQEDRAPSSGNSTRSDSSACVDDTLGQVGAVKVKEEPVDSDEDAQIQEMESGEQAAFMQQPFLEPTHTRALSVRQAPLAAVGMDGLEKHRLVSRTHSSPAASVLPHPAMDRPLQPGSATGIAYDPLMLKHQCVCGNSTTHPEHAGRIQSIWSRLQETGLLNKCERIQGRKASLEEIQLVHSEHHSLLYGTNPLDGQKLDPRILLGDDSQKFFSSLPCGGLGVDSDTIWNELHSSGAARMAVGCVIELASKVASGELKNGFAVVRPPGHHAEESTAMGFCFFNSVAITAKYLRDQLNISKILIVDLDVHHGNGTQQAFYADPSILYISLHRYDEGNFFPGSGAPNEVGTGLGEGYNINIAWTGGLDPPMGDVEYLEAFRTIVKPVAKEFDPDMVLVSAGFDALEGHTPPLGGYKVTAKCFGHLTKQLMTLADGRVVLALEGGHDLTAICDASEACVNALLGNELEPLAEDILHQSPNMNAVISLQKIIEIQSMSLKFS
Description: as §1, §2

Chain of HDAC5 (Q9UQL6 whole entry, species assumed): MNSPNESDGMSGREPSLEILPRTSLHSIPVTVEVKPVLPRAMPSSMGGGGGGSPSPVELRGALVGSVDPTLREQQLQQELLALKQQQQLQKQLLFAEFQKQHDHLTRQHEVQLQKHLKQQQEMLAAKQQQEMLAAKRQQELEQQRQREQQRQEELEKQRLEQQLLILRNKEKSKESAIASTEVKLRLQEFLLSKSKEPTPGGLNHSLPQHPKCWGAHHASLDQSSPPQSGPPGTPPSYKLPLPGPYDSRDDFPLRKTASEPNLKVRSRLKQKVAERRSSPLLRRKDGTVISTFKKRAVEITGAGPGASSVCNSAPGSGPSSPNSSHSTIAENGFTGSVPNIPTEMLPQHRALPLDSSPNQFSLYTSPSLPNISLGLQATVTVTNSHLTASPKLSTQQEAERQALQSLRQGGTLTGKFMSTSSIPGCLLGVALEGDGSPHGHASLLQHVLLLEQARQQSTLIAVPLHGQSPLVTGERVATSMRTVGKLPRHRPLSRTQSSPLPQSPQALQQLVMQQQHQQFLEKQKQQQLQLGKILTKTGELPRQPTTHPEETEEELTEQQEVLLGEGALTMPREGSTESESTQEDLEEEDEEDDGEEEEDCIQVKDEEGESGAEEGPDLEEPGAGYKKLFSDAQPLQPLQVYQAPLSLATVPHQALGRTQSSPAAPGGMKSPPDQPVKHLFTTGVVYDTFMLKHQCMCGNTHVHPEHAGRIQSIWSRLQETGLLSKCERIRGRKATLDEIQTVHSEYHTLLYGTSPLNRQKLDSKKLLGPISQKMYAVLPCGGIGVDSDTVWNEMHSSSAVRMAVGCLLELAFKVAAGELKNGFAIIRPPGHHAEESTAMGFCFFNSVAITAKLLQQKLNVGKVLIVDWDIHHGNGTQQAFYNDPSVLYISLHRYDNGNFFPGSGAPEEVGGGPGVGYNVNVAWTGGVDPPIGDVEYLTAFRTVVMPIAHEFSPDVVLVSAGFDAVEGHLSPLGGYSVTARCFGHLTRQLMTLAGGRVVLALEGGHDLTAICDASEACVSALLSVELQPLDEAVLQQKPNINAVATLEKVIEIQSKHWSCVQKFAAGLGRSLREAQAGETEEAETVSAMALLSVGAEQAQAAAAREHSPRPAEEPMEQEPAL

COc1ccc(N(C)c2nc(C)nc3ccccc23)cc1OCCCC(=O)NO [23BB, N-hydroxy-4-(2-methoxy-5-(methyl(2-methylquinazolin-4-yl)-amino)phenoxy)butanamide]
> 588.235: Selective Ratio HDAC5 (HDAC5) | Selective Ratio HDAC4 (HDAC4) | Selective Ratio HDAC7 (HDAC7) | Selective Ratio HDAC11 (HDAC11) | Selective Ratio HDAC9 (HDAC9)
